Results taken from US20230265068A1, “TRANSIENT RECEPTOR POTENTIAL CANONICAL 3 INHIBITORS AND METHODS OF USE THEREOF” (University of Tennessee Research Foundation, priority 2020, published 2023).

How the values were obtained:
[1] = maximum tolerated dose / in vivo toxicity study in mice; details: 200 mg/kg/day IP for five consecutive days
Description: The in vivo study was performed in compliance with the NIH Animal Use Guidelines and protocol approved by the Institutional Animal Care and Use Committee (IACUC) at the University of Tennessee Health Science Center (UTHSC, Memphis, Tenn.). NSG mice at 8 weeks (n=2) and ICR mice at 12 weeks (n=3) were housed with a 12:12-hour light-dark cycle and fed a breeder chow diet. Daily IP injections of 200 mg/kg of compounds 22 or 79 were administered for five consecutive injections in five mice, respectively, which were followed to monitor the mortality rate. Body weights of the mice were recorded daily.
The metabolic stability of compound 22 was tested prior to the next phase of in vivo study. […] The maximum tolerated dose (MTD) study was subsequently performed to investigate its in vivo toxicity (FIGS. 4A and 4B). The second major limitation of Pyr3 is its toxicity due to its alkylating tail moiety. While replacing only the fast-metabolizing head ester group in Pyr3 with a stable amide (compound 79) improved metabolic stability, a single IP injection of compound 79 at 200 mg/kg killed all mice within 24 h.
Compound 79 is a metabolically stable version of Pyr3. Mice treated daily with compound 22 or compound 79 (n=5) for 5 consecutive days. All the mice were treated with either compound 22 or 79 at 200 mg/kg (IP). […]

[2] = test system: PTZ-induced seizures; experiment: mouse pentylenetetrazole (PTZ) model of SE; assay type: in vivo, mice; details: 100 mg/kg, i.p., 30 min before PTZ; vs vehicle
Description: FIGS. 8A-8B show the inhibition of TRPC3 channels by compound 22 reduces susceptibility of animals to PTZ-induced seizures. Young adult C57BL/6 mice (male, 8-9 weeks) were first treated by compound 22 (100 mg/kg, i.p.), and 30 minutes later by pentylenetetrazole (PTZ, 80±5 mg/kg, s.c.) for the induction seizures. (FIG. 8A) Percentages of mice reaching myoclonic jerk (MJ, Left) and generalized tonic-clonic seizure (GTCS, Right) were compared between vehicle and compound 22-treated mice by Mantel-Cox log-rank test. (FIG. 8B) Latencies to the first MJ (Left) and first GTCS (Right) were compared between vehicle and compound 22 by t-test. Data are shown as mean+SEM (number of mice N=9 for vehicle; 10 for compound 22).
To ensure that the efficacy observed in FIG. 7 is not associated with this particular mouse model of epilepsy, we examined the effects of our current lead compound 22 on pentylenetetrazole (PTZ)-induced seizures in mice. As a GABA receptor antagonist, PTZ is another convulsant chemical commonly used to generate seizures in experimental rodents. Young adult C57BL/6 mice (male, 8-9 weeks) were first treated by 22 (100 mg/kg, i.p.) or vehicle. Thirty minutes later, mice were subcutaneously injected with (PTZ, ˜80 mg/kg) to induced seizures. Animals were placed in a plexiglass chamber, and the latencies to the first myoclonic jerk (MJ) and the first generalized tonic-clonic seizure (GTCS) were recorded during a 30-min period of observation. […] Given that PTZ (FIG. 8) and pilocarpine (FIG. 7) trigger seizures via different mechanisms of actions, it is unlikely the anti-seizure effects of our lead compound 22 are model-specific.

In the case of `CCNC(=O)c1cnn(-c2ccc(-n3ccc(Cl)c(Cl)c3=O)cc2)c1C(F)(F)F` [Compound 22], the “acute toxicities / body weight loss” value [1] is reported as “no acute toxicities or body weight loss”, the “latency to first GTCS” value [2] is reported as “significantly increased” and the “latency to first MJ” value [2] is reported as “significantly increased”. The “percentage of mice that reached generalized tonic-clonic seizure (GTCS)” value [2] was “substantially reduced” and the “percentage of mice that reached myoclonic jerk (MJ)” value [2] was “substantially reduced”.
